In US7687453B2, “Method for administering insulin to the buccal region” (Generex Pharmaceuticals Incorporated, priority 1998, dated 2010):

Experiments:
Type in all cases: in vivo, human
blood glucose [1] = assay: Blood glucose, oral mixed micellar insulin vs injection, fasted Type II diabetic volunteers (Example 8); details: injection 10 units, avg of 10 fasted Type II diabetics
Method: In one set of tests, ten Type II diabetic human volunteers who took insulin, by injection three times a day, were studied. In another set of tests the volunteers were tested with insulin, faken orally. The volunteers fasted from midnight prior to the test, with no food being taken during the 4 hour study. On the first day, the volunteers received 10 units insulin by injection (regular fast acting insulin, available from Eli Lilly). On the second day, the volunteers received 30 units (1 mL volume per drop, approximately 20 drops) of the above-prepared oral insulin (3 times the injection dose). In both tests, blood glucose levels were monitored every 15 minutes by Bayer's Glucometer Elite.

blood glucose [2] = assay: Blood glucose, nasal mixed micellar insulin vs injection (Example 10); details: injection 10 units, avg of ten volunteers
Method: The formulation of Example 9 was tested in a manner similar to that indicated in Example 8 except that the formulation of the present invention was administered nasally.
On the first day, the ten volunteers each received 10 units insulin injection (regular fast acting, Eli Lilly). On the second day, the volunteers received 20 units of the “oral” insulin of Example 9 (2 times the injection dose). The “oral” insulin was administered as drops (0.4 mL volume per drop, approximately 4 large drops in total, i.e. two drops in each nostril).

meal glucose [3] = assay: Meal glucose, oral mixed micellar insulin vs injection, Type II diabetic volunteers (Example 12); details: injection 10 units, avg of 10 Type II diabetics, meal 30 min after dosing
Method: The mixed micellar formulation of Example 9 was tested in diabetic volunteers under controlled conditions to determine the oral insulin effect on meal glucose when compared to injected insulin.
(§1) In one set of tests, ten Type II diabetic human volunteers who took insulin, by injection three times a day, were studied. In another set of tests the volunteers were tested with insulin, taken orally. The volunteers fasted from midnight prior to the tests, with food being taken 30 minutes after dosing. The meals were standard Sastacal 240 mL liquid diet approved by the Diabetic Society, containing 400 calories.
(§2) On the first day, the volunteers received 10 units insulin by injection (regular fast acting insulin, available from Eli Lilly). On the second day, the volunteers received 30 units of the above-prepared oral insulin (3 times the injection dose). In both tests, blood glucose levels were monitored every 15 minutes by Bayer's Glucometer Elite.

meal glucose [4] = assay: Meal glucose, oral mixed micellar insulin vs injection, healthy non-diabetic volunteers (Example 11); details: injection 10 units, ten healthy volunteers, meal 30 min after dosing
Method: The mixed micellar formulation of Example 9 was tested in healthy volunteers under controlled conditions to determine the oral insulin effect on meal glucose when compared to injected insulin.
as §1, with “healthy non-diabetic” for “Type II diabetic”, “were tested with” for “who took”, “injection.” for “injection three times a day, were studied.”
as §2

meal glucose [5] = assay: Meal glucose, chewable gum insulin vs injection, Type II diabetic volunteers (Example 13); details: injection 10 units, avg of five Type II diabetics, meal 30 min after dosing
Method: The mixed micellar formulation in chewable stick form was tested in diabetic volunteers under controlled conditions to determine the oral insulin effect on meal glucose when compared to injected insulin.
as §1, with “of tests, five Type II” for “of tests, ten Type II”, “tested with the chewable gum insulin, taken” for “tested with insulin, taken”
as §2, with “above-prepared chewable gum” for “above-prepared”, “in” for “In”

## regular fast acting insulin: regular fast acting insulin, available from Eli Lilly, given by injection (10 units)
Blood glucose [1]; 0 min
  Blood glucose levels: 6.8 mmol/L
Blood glucose [1]; 15 min
  Blood glucose levels: 6.9 mmol/L
Blood glucose [1]; 30 min
  Blood glucose levels: 6.1 mmol/L
Blood glucose [1]; 45 min
  Blood glucose levels: 5.8 mmol/L
Blood glucose [1]; 60 min
  Blood glucose levels: 5.8 mmol/L
Blood glucose [1]; 75 min
  Blood glucose levels: 5.8 mmol/L
Blood glucose [1]; 90 min
  Blood glucose levels: 5.4 mmol/L
Blood glucose [1]; 105 min
  Blood glucose levels: 5.4 mmol/L
Blood glucose [1]; 120 min
  Blood glucose levels: 5.2 mmol/L
Blood glucose [1]; 135 min
  Blood glucose levels: 5.1 mmol/L
Blood glucose [1]; 150 min
  Blood glucose levels: 4.9 mmol/L
Blood glucose [1]; 165 min
  Blood glucose levels: 4.9 mmol/L
Blood glucose [1]; 180 min
  Blood glucose levels: 4.8 mmol/L
Blood glucose [1]; 195 min
  Blood glucose levels: 4.8 mmol/L
Blood glucose [1]; 210 min
  Blood glucose levels: 5.2 mmol/L
Blood glucose [1]; 225 min
  Blood glucose levels: 5.2 mmol/L
Blood glucose [1]; 240 min
  Blood glucose levels: 5.4 mmol/L
Blood glucose [2]; 0 min
  Blood glucose levels: 6.8 mmol/L
Blood glucose [2]; 15 min
  Blood glucose levels: 7.0 mmol/L
Blood glucose [2]; 30 min
  Blood glucose levels: 6.8 mmol/L
Blood glucose [2]; 45 min
  Blood glucose levels: 6.3 mmol/L
Blood glucose [2]; 60 min
  Blood glucose levels: 6.3 mmol/L
Blood glucose [2]; 75 min
  Blood glucose levels: 5.8 mmol/L
Blood glucose [2]; 90 min
  Blood glucose levels: 5.2 mmol/L
Blood glucose [2]; 105 min
  Blood glucose levels: 5.0 mmol/L
Blood glucose [2]; 120 min
  Blood glucose levels: 5.2 mmol/L
Blood glucose [2]; 135 min
  Blood glucose levels: 4.2 mmol/L
Blood glucose [2]; 150 min
  Blood glucose levels: 4.6 mmol/L
Blood glucose [2]; 165 min
  Blood glucose levels: 4.0 mmol/L
Blood glucose [2]; 180 min
  Blood glucose levels: 4.1 mmol/L
Blood glucose [2]; 195 min
  Blood glucose levels: 4.3 mmol/L
Blood glucose [2]; 210 min
  Blood glucose levels: 4.5 mmol/L
Blood glucose [2]; 225 min
  Blood glucose levels: 4.7 mmol/L
Blood glucose [2]; 240 min
  Blood glucose levels: 5.0 mmol/L
Meal glucose [3]; 0 min
  Blood glucose levels: 8.7 mmol/L
Meal glucose [3]; 15 min
  Blood glucose levels: 8.8 mmol/L
Meal glucose [3]; 30 min
  Blood glucose levels: 8.9 mmol/L
Meal glucose [3]; 45 min
  Blood glucose levels: 10.1 mmol/L
Meal glucose [3]; 60 min
  Blood glucose levels: 11.8 mmol/L
Meal glucose [3]; 75 min
  Blood glucose levels: 11.8 mmol/L
Meal glucose [3]; 90 min
  Blood glucose levels: 12.2 mmol/L
Meal glucose [3]; 105 min
  Blood glucose levels: 11.2 mmol/L
Meal glucose [3]; 120 min
  Blood glucose levels: 10.4 mmol/L
Meal glucose [3]; 135 min
  Blood glucose levels: 8.4 mmol/L
Meal glucose [3]; 150 min
  Blood glucose levels: 7.3 mmol/L
Meal glucose [3]; 165 min
  Blood glucose levels: 6.5 mmol/L
Meal glucose [3]; 180 min
  Blood glucose levels: 4.3 mmol/L
Meal glucose [4]; 0 min
  Blood glucose levels: 5.5 mmol/L
Meal glucose [4]; 15 min
  Blood glucose levels: 5.6 mmol/L
Meal glucose [4]; 30 min
  Blood glucose levels: 5.4 mmol/L
Meal glucose [4]; 45 min
  Blood glucose levels: 5.4 mmol/L
Meal glucose [4]; 60 min
  Blood glucose levels: 5.6 mmol/L
Meal glucose [4]; 75 min
  Blood glucose levels: 6.6 mmol/L
Meal glucose [4]; 90 min
  Blood glucose levels: 7.0 mmol/L
Meal glucose [4]; 105 min
  Blood glucose levels: 5.9 mmol/L
Meal glucose [4]; 120 min
  Blood glucose levels: 5.6 mmol/L
Meal glucose [4]; 135 min
  Blood glucose levels: 5.1 mmol/L
Meal glucose [4]; 150 min
  Blood glucose levels: 4.8 mmol/L
Meal glucose [4]; 165 min
  Blood glucose levels: 4.6 mmol/L
Meal glucose [4]; 180 min
  Blood glucose levels: 4.3 mmol/L
Meal glucose [5]; 0 min
  Blood glucose levels: 8.8 mmol/L
Meal glucose [5]; 15 min
  Blood glucose levels: 8.2 mmol/L
Meal glucose [5]; 30 min
  Blood glucose levels: 8.0 mmol/L
Meal glucose [5]; 45 min
  Blood glucose levels: 8.4 mmol/L
Meal glucose [5]; 60 min
  Blood glucose levels: 9.2 mmol/L
Meal glucose [5]; 75 min
  Blood glucose levels: 10.3 mmol/L
Meal glucose [5]; 90 min
  Blood glucose levels: 11.8 mmol/L
Meal glucose [5]; 105 min
  Blood glucose levels: 11.6 mmol/L
Meal glucose [5]; 120 min
  Blood glucose levels: 11.0 mmol/L
Meal glucose [5]; 135 min
  Blood glucose levels: 10.2 mmol/L
Meal glucose [5]; 150 min
  Blood glucose levels: 9.6 mmol/L
Meal glucose [5]; 165 min
  Blood glucose levels: 9.5 mmol/L
Meal glucose [5]; 180 min
  Blood glucose levels: 9.1 mmol/L
Meal glucose [5]; 195 min
  Blood glucose levels: 8.7 mmol/L
Meal glucose [5]; 210 min
  Blood glucose levels: 8.2 mmol/L
Meal glucose [5]; 225 min
  Blood glucose levels: 8.0 mmol/L
Meal glucose [5]; 240 min
  Blood glucose levels: 7.5 mmol/L
